# Data from paper PMC1796864, “Crystal structure of AFV3-109, a highly conserved protein from crenarchaeal viruses” (Virology Journal, 2007).
# Biological target: T1, AFV3-109 (Betalipothrixvirus acidiani, UniProt A7WKA5)
# T1 construct: homodimer in solution and crystal
# Experiment: tryptophan fluorescence quenching titration
# Type: binding
# Conditions: read-out: KDapp
structure (smiles),measurement,value
OCC(O)CO [glycerol],Kd,1700 nM
